# From patent US5204361A, “Method for treating laminitis in equine livestock” (priority 1988, dated 1993)
# Experiments:
# [1] = test system: horses given controlled doses of ground wheat; test: Experiment 3: in vivo action of virginiamycin in horses dosed with ground wheat; design: species or system horse
# Protocol: These animals were pre-dosed with virginiamycin by feeding 2 kg of a mixture containing: chaff 1225 g, sugar 225 g, water 450 g and `Stafac 20` 100 g. This provided approximately 2 g virginiamycin/d. The sugar was first dissolved in water before adding the `Stafac 20` and mixing it into a uniform suspension. This mixture was then added to the chaff and mixed for 20 minutes. When this feed was not eaten on the second day on which it was offered the animals were dosed with 125 g `Stafac 20`/head (2.5 g virginiamycin/head), via a stomach tube. On the third day of the experiment the animals were given a dose of ground wheat. This provided approximately 6 mg virginiamycin/kg liveweight. The wheat was mixed in a slurry with water and given in two equal amounts with an interval of about 2 hours between doses. The animals were examined and sampled at 8 hour intervals over a period of 48 hours as described for Experiment 1 above. Times were taken from the first dose of wheat.
# Eight horses were used for this experiment. Four animals received virginiamycin and 4 animals received the same treatment but without virginiamycin. The animals which received virginiamycin were pre-dosed for two days prior to administration of the wheat slurry by feeding 640 g of a mixture containing lucerne chaff 495 g, sugar 16.5 g, cornflour 8.3 g, water 115 g, `Stafac 500` 4.95 g. This provided approximately 2.48 g virginiamycin/d. This was prepared in the following way. An evenly mixed slurry of the sugar, cornflour, water and `Stafac 500` was prepared and this was added to the lucerne chaff before mixing thoroughly in a cement mixer. The control animals received 640 g of lucerne chaff without any additive. The doses of wheat administered on the third day provided 12 grams of ground wheat/kg liveweight. Again this was given in two equal amounts with an interval between doses. The wheat given to the horses on the virginiamycin treatment contained `Stafac 20` (20/kg wheat). This provided approximately 4.8 mg virginiamycin/kg liveweight. The animals were examined and sampled at 8 hour intervals over a period of 48 hours as described above for Experiment 1.
# [2] = test system: caecal/large colon digesta; test: Experiment 2 Part 5: efficacy of tylosin relative to virginiamycin, digesta incubated with glucose; format: cell-based, horse; settings: antibiotic 1.00 μg/ml, 37°, 20 hours, mean
# [3] = test system: caecal and large colon digesta; test: Experiment 2 Part 4: digesta of virginiamycin-fed horses incubated with cornstarch; format: cell-based, horse; settings: for L-lactate, incubated digesta / pH, incubated digesta: digesta of virginiamycin-fed horses incubated 20 hours with cornstarch 15 mg/ml, n = 5, mean
# Protocol: (§1) Digesta was taken from the caecum and large colon from recently slaughtered animals and was filtered through nylon gauze (approximately 60 micron apertures). The fluid was diluted 1:1 with a buffer solution described by Bales et al. (1976) and incubated with wheat "corn starch" (with or without antibiotics) at 37° for 16 to 20 hours. Aliquots of digesta diluted with buffer (50 ml) were added to 100 ml conical flasks. The flasks were flushed with carbon dioxide before being sealed with a tightly fitting rubber cap. A 21 gauge needle was inserted through the rubber seal in order to allow gas to escape during the fermentation. On removal from the incubator sub-samples were immediately taken to measure L-lactic acid concentration and pH. For each treatment or level of antibiotic three replicate incubation flasks were used.
# A total of ten horses were used for this experiment. Five horses were offered 5 kg of a pelleted mixture (ground wheat 92.5%, ground lucerne chaff 5% and `Stafac 20` 2.5% to supply approximately 2.5 g virginiamycin. A further 5 horses were offered the same feed but without virginiamycin. Samples of caecal and large colon digesta were taken for analysis of pH, VFA, virginiamycin and L-lactate. Samples were also prepared as described above with buffer solution and incubated (1 flask/sample) with cornstarch (15 mg/ml diluted digesta). Following 20 hours incubation samples were taken for analysis of L-lactate and pH.
# [4] = test system: caecal/large colon digesta; test: Experiment 2 Part 5: efficacy of tylosin relative to virginiamycin, digesta incubated with glucose; format: cell-based, horse; settings: digesta incubated with glucose, 37°, 20 hours, mean
# Protocol: An in vitro fermentation experiment was conducted to determine the efficacy of tylosin relative to virginiamycin. Samples of strained caecal and large colon digesta (16 ml) were incubated with glucose solution (60 ug/ml) (4 ml) and varying concentrations of either tylosin or virginiamycin representing […], 2.0, 4.0 ug of tylosin or virginiamycin per ml. The 25 ml containers were incubated at 37° for 20 hours. There were three replicates per treatment.
# [5] = test system: caecal/large colon digesta; test: Experiment 2 Part 2: in vitro fermentation with cornstarch, antibiotics at or below 2 ug/ml; format: cell-based, horse; settings: for L-lactate / pH: cornstarch 0.75 g per flask, 16 hours, mean
# Protocol: as §1
# Incubation flasks were set up as described above with cornstarch (0.75 g) containing virginiamycin, flavomycin or zinc-bacitracin a levels to provide: 0, 0.25, 0.5, 1.0 and 2 ug antibiotic/ml incubation mixture. These flasks were incubated for 16 hours. Flasks were also set up with 0.75 g cornstarch and no antibiotic equipped with a tap and sampling tube in order to take samples from the incubation vessels at various times during the fermentation. Samples were taken at the start of the incubation and at 2, 4, 6, 8, 12 and 24 h. These were analysed for L-lactate concentration and pH.
# [6] = test system: caecal and large colon contents; test: Experiment 2 Part 3: in vitro screening at 2 ug/ml in digesta of four horses; format: cell-based, horse; settings: for pH / L-lactate: 2 ug antibiotic/ml, 15 mg cornstarch/ml, 20 hour incubation
# Protocol: as §1
# All four of the antibiotics, listed above, were incubated as previously described to provide 2 ug antibiotic and 15 mg cornstarch per ml incubation mixture. There was one flask per test and each antibiotic was incubated in digesta from both the caecum and the large colon taken from each of 4 animals. Samples of incubation fluid were taken following a 20 hour incubation and were analysed for L-lactate and pH.
substance,measurement,setting,value
virginiamycin,signs of lameness,"[1]; 5 animals dosed with virginiamycin, ground wheat, 48 hours, 3 of 4 controls Obel grade 2",none showed any signs of lameness
same,faecal pH,"[1]; 48 hours after wheat slurry, FIG. 4(b)",no significant change
same,death after wheat slurry with virginiamycin,"[1]; Part 1, 2 horses, approx 6 mg virginiamycin/kg liveweight, build up of gas in the caecum",one died after 16 hours
same,"parameters associated with acidosis (blood bicarbonate and pH, and faecal pH)",[1]; after wheat slurry,within normal limits
same,blood L-lactate versus control,"[1]; at 8 and 16 hours after wheat, FIG. 3",significantly higher
same,blood D-lactate,"[1]; at 16 hours after wheat, FIG. 3",only a minor increase
same,blood L-lactate versus control,"[1]; by 40 hours after wheat, FIG. 3",higher (p<0.05) in the control animals
same,blood D-lactate level,[1]; in vivo,maintained blood D-lactate at a low level
same,development of laminitis following excessive carbohydrate intake,[1]; in vivo,protected horses against the development of laminitis
same,gas produced during the initial rapid fermentation of the carbohydrate,[1]; in vivo,more gas was produced
same,heart rate versus control horses,[1]; in vivo,higher than that of the control horses
same,"ill effects of the dose, second animal",[1]; in vivo,no ill effects
same,reduction in lameness versus control,[1]; virginiamycin prior to and in conjunction with the wheat slurry,significant (p<0.05) reduction
same,L-lactate,[2],9.3 mmol/L
same,"L-lactate, incubated digesta",[3]; Caecum,5.5 mmol/L
same,"pH, incubated digesta",[3]; Caecum,5.2
same,"L-lactate, incubated digesta",[3]; Colon,1.8 mmol/L
same,"pH, incubated digesta",[3]; Colon,5.3
same,lactic acid produced following incubation with cornstarch versus controls,"[3]; digesta from animals that had consumed virginiamycin, p<0.001",significantly less
same,pH in the incubated digesta versus controls,[3]; digesta from animals that had received virginiamycin,higher pH
same,L-lactate,[4]; antibiotic 0.50 μg/ml,25 mmol/L
same,L-lactate,[4]; antibiotic 2.00 μg/ml,11.0 mmol/L
same,L-lactate,[4]; antibiotic 4.00 μg/ml,7.7 mmol/L
same,L-lactate,[5]; antibiotic 0.25 μg/ml,28.4 mmol/L
same,pH,[5]; antibiotic 0.25 μg/ml,5.45
same,L-lactate,[5]; antibiotic 0.50 μg/ml,28.8 mmol/L
same,pH,[5]; antibiotic 0.50 μg/ml,5.44
same,L-lactate,[5]; antibiotic 1.00 μg/ml,3.2 mmol/L
same,pH,[5]; antibiotic 1.00 μg/ml,5.66
same,L-lactate,[5]; antibiotic 2.00 μg/ml,1.4 mmol/L
same,pH,[5]; antibiotic 2.00 μg/ml,5.78
same,control of lactic acid compared with the other antibiotics,[5]; at concentrations of 1 ug/ml,best control of lactic acid
same,pH,[6]; Horse 1,5.40
same,L-lactate,"[6]; Horse 1, mean of caecum and large colon",0.3 mmol/L
same,pH,[6]; Horse 2,4.94
same,L-lactate,"[6]; Horse 2, mean of caecum and large colon",34.1 mmol/L
same,pH,[6]; Horse 3,5.17
same,L-lactate,"[6]; Horse 3, mean of caecum and large colon",7.6 mmol/L
same,pH,[6]; Horse 4,5.27
same,L-lactate,"[6]; Horse 4, mean of caecum and large colon",12.3 mmol/L
same,L-lactate,[6]; Mean of 4 horses,13.6 mmol/L
same,pH,[6]; Mean of 4 horses,5.19
same,pH of the incubation fluid relative to unmedicated control,"[6]; all horses, 2 ug/ml, p,0.01",significant increase
same,L-lactate concentration relative to unmedicated control,"[6]; all horses, 2 ug/ml, p<0.001",significant reduction
